The species named for assay [1] is Rattus norvegicus. The assay can be described thus: Selectivity ratio of alpha1/alpha2d.
Assay [2] concerns the target T1, Alpha-2B adrenergic receptor (Homo sapiens, UniProt P18089).
T1 sequence (P18089 whole entry): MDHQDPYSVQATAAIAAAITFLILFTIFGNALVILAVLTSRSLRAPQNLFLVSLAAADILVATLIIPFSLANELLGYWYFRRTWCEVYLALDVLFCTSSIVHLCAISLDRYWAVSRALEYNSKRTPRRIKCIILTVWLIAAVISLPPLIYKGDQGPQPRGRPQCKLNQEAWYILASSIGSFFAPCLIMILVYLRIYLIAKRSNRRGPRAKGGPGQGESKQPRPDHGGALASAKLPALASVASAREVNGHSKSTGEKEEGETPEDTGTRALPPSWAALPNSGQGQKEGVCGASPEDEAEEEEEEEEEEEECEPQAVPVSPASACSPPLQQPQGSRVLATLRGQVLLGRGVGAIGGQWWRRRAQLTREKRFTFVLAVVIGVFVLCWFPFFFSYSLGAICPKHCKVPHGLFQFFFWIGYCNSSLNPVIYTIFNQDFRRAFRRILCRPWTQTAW
The assay can be described thus: Binding affinity towards Alpha-2B adrenergic receptor.

The target of assay [3] is T2, Alpha-2A adrenergic receptor (Homo sapiens, UniProt P08913).
T2 sequence (P08913 whole entry): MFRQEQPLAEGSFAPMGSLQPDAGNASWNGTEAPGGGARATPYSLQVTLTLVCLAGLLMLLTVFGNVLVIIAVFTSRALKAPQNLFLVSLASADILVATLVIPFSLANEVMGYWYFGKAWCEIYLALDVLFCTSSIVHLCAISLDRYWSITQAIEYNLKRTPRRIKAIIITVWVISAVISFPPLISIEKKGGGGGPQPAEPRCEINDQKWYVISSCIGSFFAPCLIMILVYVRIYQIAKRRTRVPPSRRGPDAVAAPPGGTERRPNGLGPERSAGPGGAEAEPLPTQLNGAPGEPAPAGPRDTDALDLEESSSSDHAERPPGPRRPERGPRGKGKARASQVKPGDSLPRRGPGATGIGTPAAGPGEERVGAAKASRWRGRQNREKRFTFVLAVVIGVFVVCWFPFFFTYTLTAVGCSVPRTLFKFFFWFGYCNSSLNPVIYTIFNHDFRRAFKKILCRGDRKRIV
The assay can be described thus: Binding affinity towards Alpha-2A adrenergic receptor.

Assay [4] addresses T3, Alpha-2C adrenergic receptor (Homo sapiens, UniProt P18825).
T3 sequence (P18825 whole entry): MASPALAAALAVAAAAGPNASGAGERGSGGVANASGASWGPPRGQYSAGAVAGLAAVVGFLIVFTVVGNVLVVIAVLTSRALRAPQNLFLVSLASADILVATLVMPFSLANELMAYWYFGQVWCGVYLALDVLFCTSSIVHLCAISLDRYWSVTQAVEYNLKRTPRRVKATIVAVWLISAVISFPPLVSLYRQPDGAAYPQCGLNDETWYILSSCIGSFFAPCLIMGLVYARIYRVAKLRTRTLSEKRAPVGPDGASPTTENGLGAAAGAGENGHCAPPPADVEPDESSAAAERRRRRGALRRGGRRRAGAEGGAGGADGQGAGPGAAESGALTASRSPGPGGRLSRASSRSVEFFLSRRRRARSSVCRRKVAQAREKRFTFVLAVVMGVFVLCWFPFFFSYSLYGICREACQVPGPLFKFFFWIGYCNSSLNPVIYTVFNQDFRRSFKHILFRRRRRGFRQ
The assay can be described thus: Binding affinity towards alpha-2C adrenergic receptor.

In assay [5] the target is T4, Alpha-2A adrenergic receptor (Rattus norvegicus, UniProt P22909).
T4 sequence (P22909 whole entry): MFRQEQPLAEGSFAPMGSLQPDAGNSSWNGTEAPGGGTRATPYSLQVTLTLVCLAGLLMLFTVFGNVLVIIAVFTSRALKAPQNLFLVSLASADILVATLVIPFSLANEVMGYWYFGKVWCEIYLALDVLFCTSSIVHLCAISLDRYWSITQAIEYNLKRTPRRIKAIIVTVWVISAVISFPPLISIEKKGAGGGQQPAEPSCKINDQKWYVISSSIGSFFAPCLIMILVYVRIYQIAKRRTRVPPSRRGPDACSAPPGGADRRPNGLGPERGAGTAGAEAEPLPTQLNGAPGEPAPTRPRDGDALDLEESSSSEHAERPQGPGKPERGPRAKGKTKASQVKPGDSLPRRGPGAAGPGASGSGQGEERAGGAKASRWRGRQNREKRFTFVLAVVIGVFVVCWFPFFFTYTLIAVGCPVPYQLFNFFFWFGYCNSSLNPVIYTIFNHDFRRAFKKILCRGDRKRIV
The assay can be described thus: Binding affinity towards alpha-2D adrenergic receptor.

For assay [6], the target named is T5, Adrenergic receptor alpha-1 (Rattus norvegicus, UniProt P15823+P23944+P43140).
T5 sequence (P15823 whole entry): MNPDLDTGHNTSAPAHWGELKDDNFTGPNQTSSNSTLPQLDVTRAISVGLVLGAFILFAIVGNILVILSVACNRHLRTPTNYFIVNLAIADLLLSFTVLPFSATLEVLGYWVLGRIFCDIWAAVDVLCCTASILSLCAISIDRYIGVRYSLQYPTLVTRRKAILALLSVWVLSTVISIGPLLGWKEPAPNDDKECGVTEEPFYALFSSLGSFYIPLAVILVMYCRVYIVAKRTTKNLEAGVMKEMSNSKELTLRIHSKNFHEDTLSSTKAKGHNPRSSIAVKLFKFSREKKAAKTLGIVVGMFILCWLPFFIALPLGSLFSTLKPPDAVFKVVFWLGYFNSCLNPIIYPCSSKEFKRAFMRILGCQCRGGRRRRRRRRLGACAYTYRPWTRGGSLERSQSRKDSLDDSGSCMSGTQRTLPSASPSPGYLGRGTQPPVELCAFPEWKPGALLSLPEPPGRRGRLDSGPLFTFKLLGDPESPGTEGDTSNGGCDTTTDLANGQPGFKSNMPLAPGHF
T5 sequence (P23944 whole entry): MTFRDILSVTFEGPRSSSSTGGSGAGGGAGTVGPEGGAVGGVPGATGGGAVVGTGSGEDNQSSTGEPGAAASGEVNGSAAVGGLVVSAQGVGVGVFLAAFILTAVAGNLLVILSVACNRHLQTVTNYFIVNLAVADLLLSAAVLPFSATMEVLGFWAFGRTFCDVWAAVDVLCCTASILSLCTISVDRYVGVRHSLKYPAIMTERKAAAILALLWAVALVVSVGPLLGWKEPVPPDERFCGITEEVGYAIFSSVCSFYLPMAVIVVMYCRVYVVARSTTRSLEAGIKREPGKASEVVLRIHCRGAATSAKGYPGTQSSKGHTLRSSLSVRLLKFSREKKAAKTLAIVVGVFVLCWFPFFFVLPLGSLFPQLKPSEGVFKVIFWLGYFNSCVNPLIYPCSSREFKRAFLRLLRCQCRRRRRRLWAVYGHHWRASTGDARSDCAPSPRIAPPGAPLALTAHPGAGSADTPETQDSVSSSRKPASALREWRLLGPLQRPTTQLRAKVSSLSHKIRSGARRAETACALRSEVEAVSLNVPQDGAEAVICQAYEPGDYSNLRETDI
T5 sequence (P43140 whole entry): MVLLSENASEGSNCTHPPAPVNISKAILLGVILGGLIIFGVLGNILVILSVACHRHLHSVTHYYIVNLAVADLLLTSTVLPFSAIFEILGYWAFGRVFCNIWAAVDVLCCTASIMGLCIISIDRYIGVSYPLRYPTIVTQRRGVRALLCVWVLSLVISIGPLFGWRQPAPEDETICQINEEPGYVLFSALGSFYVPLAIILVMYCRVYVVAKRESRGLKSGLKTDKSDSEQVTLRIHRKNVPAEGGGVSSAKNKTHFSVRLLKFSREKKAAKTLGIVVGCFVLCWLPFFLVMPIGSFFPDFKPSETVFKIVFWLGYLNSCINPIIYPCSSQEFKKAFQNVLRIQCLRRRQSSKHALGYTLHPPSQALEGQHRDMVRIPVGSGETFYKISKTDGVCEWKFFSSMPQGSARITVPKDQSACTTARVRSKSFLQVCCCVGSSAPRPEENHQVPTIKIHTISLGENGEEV
The assay can be described thus: Tested for Binding affinity towards alpha-1 adrenergic receptor. It counts as protein assay.

For assay [7], the target named is T6, Alpha-2C adrenergic receptor (Homo sapiens) (UniProt P18825).
T6 sequence (whole entry): T3 sequence (P18825 whole entry)
The assay can be described thus: Tested for Binding affinity towards alpha-2C adrenergic receptor in rat cells at 1 uM. It counts as cell-based.

Assay [8] has as its target T7, Alpha-2A adrenergic receptor (Homo sapiens) (UniProt P08913).
T7 sequence (whole entry): T2 sequence (P08913 whole entry)
The assay can be described thus: Tested for Binding affinity towards Alpha-2A adrenergic receptor at 1 uM.

Assay [9] deals with T1, Alpha-2B adrenergic receptor. The assay can be described thus: Tested for Binding affinity towards alpha-2B adrenergic receptor.

Each structure is given as a SMILES string.

The Ki is the equilibrium dissociation constant of an inhibitor or competing ligand from its target. Low values mean tighter binding, high ones weaker binding. On to `Cc1sc(C)c2c1CCCC2c1c[nH]cn1` (stereo not drawn), for which, in assay [1], the Ratio is 17. The Ki in assay [2] came out at 141 nM; in assay [3], 68 nM; in [4], 205 nM.
The corresponding values for `c1nc(C2CCCc3sccc32)c[nH]1` (stereo not drawn) are 196, 99 nM, 27 nM and 172 nM.
With `Cc1sc(C)c2c1CCC=C2c1cnc[nH]1`, the Ki in assay [2] amounted to 100 nM; in assay [3], 25 nM; in assay [5], 8.6 nM; in [4], 26 nM.
With `C1=C(c2c[nH]cn2)c2sccc2CC1`, in [1], the Ratio turned out to be 133.
Turning to `Cc1cccc([C@H](C)c2c[nH]cn2)c1C` [DEXMEDETOMIDINE], in [1], the Ratio was 333. For the same compound, in [6], the Ki worked out at 5 nM.
`Cc1cccc([C@H](C)c2cnc[nH]2)c1C` [DEXMEDETOMIDINE] had a Ki in assay [5] of 0.015 nM.
As to `c1cc(-c2c[nH]cn2)c2ccsc2c1`, in [1], the Ratio was 132. Moreover, the Ki came to 663 nM in assay [2] and 277 nM in assay [3].
The corresponding values for `C1=C(c2c[nH]cn2)c2ccsc2CC1` are 295, 621 nM and 254 nM.
As a reminder, the inhibition is the change of the read-out against control, counted positive when it falls. Lower therefore signals a response near the control. `c1nc(C2CCCc3ccsc32)c[nH]1` (stereo not drawn): the inhibition was found to be 54% in assay [7] and 87% in [8]. For the same compound, in assay [1], the Ratio is 260.
Take `Cc1sc(C)c2c1CCC=C2c1c[nH]cn1`: the Ratio in assay [1] was found to be 11600.
As to `C1=C(c2cnc[nH]2)c2sccc2CC1`, the Ki in assay [3] came out at 224 nM; in assay [9], 940 nM.

The record behind these values is ChEMBL document CHEMBL1133123 (J Med Chem, 2000).
